Literature values as cited in patent US20260085040A1, “AMINO ACID AND CA[…] DERIVATIVES” (priority 2022, published 2026).

What was measured:
[1] = 10 patients with alcohol dependence per DSM-IV
[2] = controlled clinical environment, subjects with OCD

CN(C)CCc1c[nH]c2cccc(OP(=O)(O)O)c12 [psilocybin]
Alcohol use post psilocybin administration [1]: significant decrease in alcohol use
Core OCD symptoms [2]: acute reductions in core OCD symptoms in several subjects
Safety of administration [2]: safely administered
Participants with biologically verified 7-day point-prevalence abstinence (6-month follow up): eighty
Participants biologically verified as being abstinent (12-month follow-up): 67%
Participants abstinent (follow-up 2.5 years after the target quit date): 75%
